Legend:
human GPR40 = target: T1, human GPR40 (Homo sapiens, UniProt O14842); test: GPR40 calcium flux assay, HEK293 cells stably expressing human GPR40; type: cell-based; conditions: transfected HEK293 cells stably expressing human GPR40, Fluo 8 dye, read-out: hGPR40 Ca2+ Assay EC50
T1 construct: expressed in transfected cells

rat GPR40 = target: T2, rat GPR40 (Rattus norvegicus, UniProt Q8K3T4); test: GPR40 calcium flux assay, HEK293 cells stably expressing rat GPR40; type: cell-based; conditions: transfected HEK293 cells stably expressing rat GPR40, Fluo 8 dye, read-out: rGPR40 Ca2+ Assay EC50
T2 construct: expressed in transfected cells

Male SD rats = test: Oral Glucose Tolerance Test, Version A; type: in vivo, rat; conditions: Assay Version A: fasted male SD rats, dosed 30 min prior to oGTT (glucose 2 g/kg po); blood glucose AUC t=0 to 120 min vs vehicle
Description: Male SD rats (200-250 g) were housed 2 per cage in a temperature-controlled room with a 12-hour light/dark cycle. They were allowed ad libitum access to water and fed with normal rodent chow. The night before the oral glucose tolerance test (oGTT), the rats were transferred to clean cages and fasted overnight. On the morning of the oGTT, the rats were weighed and randomized into groups based on fasted blood glucose and body weight. Rats were dosed with vehicle (0.5% methocel) or compounds thirty min prior to the oGTT (glucose, 2 g/kg, po). Blood was collected from the tail vein at 0, 10, 30, 60 and 120 minutes after glucose challenge to measure blood glucose; plasma was used to determine insulin levels. The area under the curve for blood glucose excursion was calculated from t=0 to t=120 minutes. Percent lowering of glucose was calculated from the AUC data with respect to the vehicle-treated group.

Male ZDF rats = test: Oral Glucose Tolerance Test, Version B; type: in vivo, rat; conditions: Assay Version B: fasted male ZDF rats, compound 10 mg/kg 120 min prior to OGTT (glucose 1 g/kg po); blood glucose AUC t=0 to 120 min vs vehicle
Description: Male ZDF rats (7 weeks old, 200-240 g) were housed 2 per cage in a temperature-controlled room with a 12-hour light/dark cycle. They were allowed ad libitum access to water and fed with 5008 rodent chow. The night before the oral glucose tolerance test (OGTT), the rats were transferred to clean cages and fasted overnight. On the morning of the OGTT, the rats were weighed and randomized into groups based on fasted blood glucose and body weight. Rats were dosed with vehicle (0.5% Methocel) or compound (10 mg/kg) 120 min prior to the OGTT (glucose, 1 g/kg, po). Blood was collected from the tail vein at 0, 10, 30, 60 and 120 minutes after glucose challenge to measure blood glucose; plasma was used to determine insulin levels. The area under the curve for blood glucose excursion was calculated from t=0 to t=120 minutes. Percent lowering of glucose was calculated from the AUC data with respect to the vehicle-treated group.

T2 sequence (Q8K3T4 whole entry): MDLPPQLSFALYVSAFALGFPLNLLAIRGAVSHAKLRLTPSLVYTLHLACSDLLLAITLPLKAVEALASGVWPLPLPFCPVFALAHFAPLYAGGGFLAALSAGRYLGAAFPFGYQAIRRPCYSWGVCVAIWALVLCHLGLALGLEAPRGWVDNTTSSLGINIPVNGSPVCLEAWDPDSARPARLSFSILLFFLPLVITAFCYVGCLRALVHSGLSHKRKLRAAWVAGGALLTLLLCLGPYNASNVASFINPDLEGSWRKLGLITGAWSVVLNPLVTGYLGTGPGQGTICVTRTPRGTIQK
T1 sequence (O14842 whole entry): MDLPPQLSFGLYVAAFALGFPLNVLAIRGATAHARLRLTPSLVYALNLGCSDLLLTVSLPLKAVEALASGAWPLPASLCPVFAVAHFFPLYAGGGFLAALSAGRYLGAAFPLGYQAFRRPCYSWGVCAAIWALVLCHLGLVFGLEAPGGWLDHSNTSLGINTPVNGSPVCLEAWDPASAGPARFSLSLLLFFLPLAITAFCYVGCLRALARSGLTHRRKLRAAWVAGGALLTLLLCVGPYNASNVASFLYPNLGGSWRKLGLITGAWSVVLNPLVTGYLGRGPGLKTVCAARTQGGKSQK

Compound | EC50 (human GPR40) [nM] | EC50 (rat GPR40) [nM] | Percent Lowering of Glucose (AUC compound vs. AUC Vehicle) (Male SD rats) [%] | Percent Lowering of Glucose (AUC compound vs. AUC Vehicle) (Male ZDF rats) [%]
COc1ccc(F)c([C@H]2CC[C@H](COc3cccc([C@@H](CC(=O)O)C4CC4)c3)CC2)c1 [Cpd 2, (S)-3-Cyclopropyl-3-(3-(((1r,4 S)-4-(2-fluoro-5-methoxyphenyl)cyclohexyl)methoxy)phenyl) propanoic acid] | 0.8 | 3.4 | 33 | 
COc1ccc(F)c([C@H]2CC[C@@H](COc3cccc([C@@H](CC(=O)O)C4CC4)c3)CC2)c1 [Cpd 1, (S)-3-Cyclopropyl-3-(3-(((1s,4R)-4-(2-fluoro-5-methoxyphenyl)cyclohexyl)methoxy)phenyl) propanoic acid] | 36.2 | 105 | 11 | 
COc1cc([C@H]2CC[C@H](COc3cc([C@H](CC(=O)O)C4CC4)ccn3)CC2)c(F)cn1 [Cpd 24, (R)-3-Cyclopropyl-3-(2-(((1r,4R)-4-(5-fluoro-2-methoxypyridin-4-yl)cyclohexyl)methoxy)pyridin-4-yl)propanoic acid] | 8.4 | 20.7 |  | 
COc1cc([C@H]2CC[C@H](COc3cc(C(CC(=O)O)C4CC4)ccn3)CC2)c(F)cn1 (some centres unmarked) [Cpd 8, 3-Cyclopropyl-3-(2-(((1r,4r)-4-(5-fluoro-2-methoxypyridin-4-yl)cyclohexyl)methoxy)pyridin-4-yl)propanoic acid] | 0.5 | 1.4 |  | 
COc1ccc(F)c([C@]2(F)CC[C@H](COc3cccc([C@@H](CC(=O)O)C4CC4)c3)CC2)c1 [Cpd 19, (S)-3-Cyclopropyl-3-(3-(((1r,4S)-4-fluoro-4-(2-fluoro-5-methoxyphenyl)cyclohexyl)methoxy)phenyl)propanoic acid] | 82.5 | 211 |  | 

The next lines start with results.

EC50 (human GPR40) [nM] | EC50 (rat GPR40) [nM] | Compound | Percent Lowering of Glucose (AUC compound vs. AUC Vehicle) (Male SD rats) [%] | Percent Lowering of Glucose (AUC compound vs. AUC Vehicle) (Male ZDF rats) [%]
0.27 | 0.72 | COc1ccc(F)c([C@H]2CC[C@H](COc3cccc([C@H](C4CC4)[C@@](C)(F)C(=O)O)c3)CC2)c1 [Cpd 59, (2R,3S)-3-Cyclopropyl-2-fluoro-3-(3-(((1r,4S)-4-(2-fluoro-5-methoxyphenyl)cyclohexyl)methoxy)phenyl)-2-methylpropanoic acid] |  | 48
5.3 | 1.3 | COc1cc([C@H]2CC[C@H](COc3cc([C@@H](CC(=O)O)C4CC4)ccn3)CC2)c(F)cn1 [Cpd 25, (S)-3-Cyclopropyl-3-(2-(((1r,4S)-4-(5-fluoro-2-methoxypyridin-4-yl)cyclohexyl)methoxy)pyridin-4-yl)propanoic acid] | 28 | 
0.2 | 0.9 | COc1ccc(F)c([C@H]2CC[C@H](COc3cc([C@@H](CC(=O)O)C4CC4)ccn3)CC2)c1 [Cpd 27, (S)-3-Cyclopropyl-3-(2-(((1r,4s)-4-(2-fluoro-5-methoxyphenyl)cyclohexyl)methoxy)pyridin-4-yl)propanoic acid] | 32 | 
212 | 676 | CCOc1cc([C@H]2CC[C@@H](COc3cc([C@@H](CC(=O)O)C4CC4)ccn3)CC2)c(F)cn1 [Cpd 48, (S)-3-cyclopropyl-3-(2-(((1s,4R)-4-(2-ethoxy-5-fluoropyridin-4-yl)cyclohexyl)methoxy)pyridin-4-yl)propanoic acid] |  | 
62.4 | 282 | COc1ccc(F)c([C@H]2CC[C@H](COc3ccnc(C(CC(=O)O)C4CC4)c3)CC2)c1 (some centres unmarked) [Cpd 34, 3-Cyclopropyl-3-(4-(((1r,4r)-4-(2-fluoro-5-methoxyphenyl)cyclohexyl)methoxy)pyridin-2-yl)propanoic acid] |  | 
0.16 | 0.15 | COc1ccc(C)c(C2CCC(COc3cccc([C@H](C4CC4)C(C)(F)C(=O)O)c3)CC2)c1 (stereo partly drawn) [Cpd 70, (3S)-3-Cyclopropyl-2-fluoro-3-(3-((4-(5-methoxy-2-methylphenyl)cyclohexyl)methoxy)phenyl)-2-methylpropanoic acid] |  | 
281 | 464 | COc1cc([C@H]2CC[C@H](COc3cc([C@@H](Cc4nnn[nH]4)C4CC4)ccn3)CC2)c(F)cn1 [Cpd 43, 4-((1S,4r)-4-(((4-((S)-1-Cyclopropyl-2-(1H-tetrazol-5-yl)ethyl)pyridin-2-yl)oxy)methyl)cyclohexyl)-5-fluoro-2-methoxypyridine] |  | 
